Measurements as given in patent US11981626B1, “Compound embodiments for hydrogen sulfide production and methods of making and using the same” (University of Oregon, priority 2018, dated 2024).

Key:
[1] = COS/H2S release monitored by PNA formation (UV-Vis) in PBS containing BSA and CA; format: physicochemical
Method: In this example, compound activation and subsequent COS/H2S release in PBS containing bovine serum albumin (BSA) was evaluated to mimic a complex biological environment. γ-KetoTCM-1 (50 μM) was incubated in PBS (pH 7.4, 10 mM) containing BSA (5 mg/mL) and CA (25 μg/mL) at 37° C. In particular, A γ-KetoTCM-1 stock solution (15.0 μl_, 10.0 mM in DMSO) was added to 3.00 mL of PBS (pH 7.40, 10.0 mM) containing BSA (5.00 mg/mL) and CA (25.0 μg/mL) in a quartz UV cuvette. The absorbance (250-500 nm) was measured and recorded by using an Agilent Cary 100 UV-Vis spectrometer at 37° C.

[2] = Effects of cellular nucleophiles on COS/H2S release (PNA formation, UV-vis); format: physicochemical; settings: PBS pH 7.4, Cys, NAC, Hcy, GSH, Lys, Ser, Gly, GSSG, 4-hour incubation, 37° C.
Method: To determine the effects of cellular nucleophiles on COS/H2S release, γ-KetoTCM-1 was incubated in […] PBS buffer (pH 7.4, 10 mM) containing (1) no cellular nucleophile (FIG. 4, bar 1); or 250 μM of Cys (FIG. 4, bar 2), 250 μM of N-acetyl cysteine (NAC) (FIG. 4, bar 3), 250 μM of homocysteine (Hcy) (FIG. 4, bar 4), 250 μM of GSH […] (FIG. 4, bar 5), 250 μM of lysine (Lys) (FIG. 4, bar 6), 250 μM of serine (Ser) (FIG. 4, bar 7), 250 μM of glycine (Gly) (FIG. 4, bar 8), or 250 μM of oxidized glutathione (GSSG) (FIG. 4, bar 9) at 37° C. PNA formation was monitored and recorded after a 4-hour incubation using UV-vis spectroscopy.

[3] = H2S release observed with an H2S electrode at different pH; format: physicochemical; settings: PBS pH 6.0-8.0
Source text: H2S release was also observed by using an H2S electrode, confirming that H2S was released in this system and such H2S release was pH-dependent (FIGS. 3A and 3B). This example therefore establishes that COS/H2S release from compound embodiments of the present disclosure can be pH dependent.

HeLa cells = assay: H2S delivery in HeLa cells imaged with SF7-AM fluorescent probe; format: cell-based; settings: 100 μM, 2 hours
Method: In this example, it was evaluated whether γ-KetoTCM-based donors can be activated to deliver H2S in cellular environments. SF7-AM, a cell-trappable H2S fluorescent probe, was used to monitor H2S accumulation from γ-KetoTCM-1 in HeLa cells. In the absence of γ-KetoTCM-1, no fluorescent signal from SF7-AM was observed, indicating negligible endogenous H2S (FIG. 9, left column, including the top and bottom images).
HeLa cells were plated in poly-D-lysine coated plates (MatTek) containing 2.00 mL of DMEM and incubated at 37° C. under 5% CO2 for 24 hours. The confluent cells were washed with PBS and then co-incubated with SF7-AM (5.00 μM) and NucBlue nuclear dye (2 drops) for 30 minutes. The cells were then washed with PBS and incubated with either γ-KetoTCM-1 (100 μM) or γ-KetoCM-1 (100 μM) alone for 2 hours. Prior to imaging, the cells were washed with PBS and bathed in 2.00 mL of PBS. Cell imaging was performed on a Leica DMi8 fluorescent microscope.

## CC(=O)CCOC(=S)Nc1ccc([N+](=O)[O-])cc1 [γ-KetoTCM-1]
[1]; PBS containing BSA and carbonic anhydrase (CA), pH 7.4 PBS containing BSA (5 mg/mL), 37° C.
  half-life at 50 μM: 14.4 ± 0.6 min
[1]; PBS pH 7.4, BSA 5 mg/mL, CA, 37° C.
  pseudo first-order rate constant kobs from fitting the UV-vis data: 8.1±0.3 ×10^−4 s^−1
[1]; pH 7.4 PBS containing BSA (5 mg/mL), CA, 37° C.
  kobs (COS/H2S releasing kinetics): 81.0 ± 3.0 ×10^−5 s^−1
[1]; pH 7.4 PBS containing BSA (5 mg/mL), relative to pH 7.4 without BSA
  krel: 18.0
[2]
  PNA formation in presence of cellular nucleophiles versus background: None of the tested nucleophiles resulted in substantial PNA formation
[3]
  H2S release by H2S electrode: pH-dependent
HeLa cells
  SF7-AM fluorescence (H2S accumulation): significant increase in SF7-AM fluorescence
